PMC6858848 (Bioorganic & medicinal chemistry letters, 2019)
≈ marks a conversion by molar mass, not a printed value.

Experiments:
hepG2 cells = conditions: CellTiter-Glo
40 targets, mostly GPCRs = conditions: 10 μM, NIMH PDSP
[1] = cited from earlier work
hERG channels = hERG channels (Homo sapiens, UniProt Q12809); assay: hERG thallium flux assay in HEK 293 cells; conditions: for hERG flux IC50: HEK 293 cells expressing hERG channels
Acid stability = type: physicochemical; conditions: HPLC peak areas (254 nm) after heating at 60°C in 1:1 MeCN:0.2N aq. HCl for 24 h, 0.3 mM
Kv7.2 channels = Kv7.2 channels (Homo sapiens, UniProt O43526); assay: Kv7.2 thallium flux assay in HEK 293 cells; type: cell-based; conditions: for fold lower potency in Kv7.2 assay relative to DMP 543: compared with DMP 543
Kv7.2 channels, sequence (O43526 whole entry): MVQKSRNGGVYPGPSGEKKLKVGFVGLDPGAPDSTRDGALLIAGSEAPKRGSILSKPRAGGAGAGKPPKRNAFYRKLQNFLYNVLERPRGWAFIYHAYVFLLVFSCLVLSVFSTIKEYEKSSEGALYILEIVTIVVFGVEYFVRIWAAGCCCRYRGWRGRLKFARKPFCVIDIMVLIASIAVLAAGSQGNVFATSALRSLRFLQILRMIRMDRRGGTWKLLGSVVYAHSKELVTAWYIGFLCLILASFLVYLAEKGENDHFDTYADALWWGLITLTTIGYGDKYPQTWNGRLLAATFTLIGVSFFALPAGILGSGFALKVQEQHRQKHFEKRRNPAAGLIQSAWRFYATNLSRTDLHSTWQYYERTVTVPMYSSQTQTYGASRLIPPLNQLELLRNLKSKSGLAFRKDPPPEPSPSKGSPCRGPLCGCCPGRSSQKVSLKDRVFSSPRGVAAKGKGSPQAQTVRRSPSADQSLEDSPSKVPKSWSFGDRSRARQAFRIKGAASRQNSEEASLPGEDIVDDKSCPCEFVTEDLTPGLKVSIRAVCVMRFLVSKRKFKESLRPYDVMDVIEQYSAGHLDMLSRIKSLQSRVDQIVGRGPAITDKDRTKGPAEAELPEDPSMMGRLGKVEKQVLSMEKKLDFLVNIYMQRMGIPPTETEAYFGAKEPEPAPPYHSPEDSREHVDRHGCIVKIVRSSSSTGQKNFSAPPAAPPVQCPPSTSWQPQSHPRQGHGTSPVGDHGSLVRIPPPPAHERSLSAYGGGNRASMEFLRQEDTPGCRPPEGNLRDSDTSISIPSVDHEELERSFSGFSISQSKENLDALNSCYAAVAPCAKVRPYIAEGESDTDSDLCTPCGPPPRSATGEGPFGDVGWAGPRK

Alzheimer's patients = conditions: cited from earlier work
[2] = test system: mouse model of Parkinson's disease; conditions: cited from earlier work
ACh release = conditions: read-out: ACh release EC50; cited from earlier work

hERG channels, sequence (Q12809 whole entry): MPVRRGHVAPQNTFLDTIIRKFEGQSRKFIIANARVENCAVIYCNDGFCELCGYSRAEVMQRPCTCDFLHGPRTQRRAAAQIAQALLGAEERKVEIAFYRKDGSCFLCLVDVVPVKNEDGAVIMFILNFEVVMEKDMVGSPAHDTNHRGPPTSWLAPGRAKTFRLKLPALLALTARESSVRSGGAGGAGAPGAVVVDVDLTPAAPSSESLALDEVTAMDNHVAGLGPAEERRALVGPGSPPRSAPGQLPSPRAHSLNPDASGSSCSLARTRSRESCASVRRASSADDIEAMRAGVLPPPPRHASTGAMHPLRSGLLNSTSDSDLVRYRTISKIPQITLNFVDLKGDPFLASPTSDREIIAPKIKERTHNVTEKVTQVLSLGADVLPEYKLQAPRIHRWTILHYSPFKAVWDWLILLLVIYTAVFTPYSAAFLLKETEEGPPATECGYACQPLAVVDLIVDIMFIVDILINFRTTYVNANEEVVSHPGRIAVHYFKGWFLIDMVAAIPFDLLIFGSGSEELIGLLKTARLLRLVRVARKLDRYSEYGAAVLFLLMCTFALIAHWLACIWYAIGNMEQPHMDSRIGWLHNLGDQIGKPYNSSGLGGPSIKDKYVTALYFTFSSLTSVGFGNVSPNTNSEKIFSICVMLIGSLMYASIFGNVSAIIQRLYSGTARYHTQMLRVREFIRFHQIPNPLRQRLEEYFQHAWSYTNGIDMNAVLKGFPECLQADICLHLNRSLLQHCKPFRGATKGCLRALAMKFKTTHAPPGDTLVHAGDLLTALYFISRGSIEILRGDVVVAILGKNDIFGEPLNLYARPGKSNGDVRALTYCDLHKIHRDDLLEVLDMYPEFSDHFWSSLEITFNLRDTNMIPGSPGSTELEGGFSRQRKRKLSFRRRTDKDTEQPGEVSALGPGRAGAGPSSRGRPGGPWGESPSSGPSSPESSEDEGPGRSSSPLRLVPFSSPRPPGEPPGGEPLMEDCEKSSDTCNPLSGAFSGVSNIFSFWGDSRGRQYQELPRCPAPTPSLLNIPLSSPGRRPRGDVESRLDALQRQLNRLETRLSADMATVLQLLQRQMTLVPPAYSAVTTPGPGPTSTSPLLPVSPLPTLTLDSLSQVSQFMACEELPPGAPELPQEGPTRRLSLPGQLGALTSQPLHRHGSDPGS

## O=C1c2ccccc2C(Cc2ccnc(F)c2)(Cc2ccnc(F)c2)c2ccccc21 [DMP 543, 10,10-Bis[(2-Fluoro-4-Pyridinyl)Methyl]-9(10 H)-Anthracenone]
hepG2 cells
  cytotoxicity CC50, hepG2 cells: low cytotoxicity
40 targets, mostly GPCRs
  Off-target activities: number of targets (of 40) with >30% binding: 6
[1]
  aqueous solubility: 6 µM (≈ 2.47 µg/mL)
physchem
  solubility kinetic: 22 µM (≈ 9.07 µg/mL)

## O=C1c2ccccc2C(Cc2ccnnc2)(Cc2c(F)cncc2F)c2ccccc21 [JDP-107 (18)]
hERG channels
  IC50: > 32000 nM
hERG channels; 1 μM, thallium flux
  hERG channel inhibition at 1 μM: no inhibition
40 targets, mostly GPCRs
  Off-target activities: number of targets (of 40) with >30% binding: 5
Acid stability
  acid stability, percent remaining: no degradation
Kv7.2 channels
  IC50: 180 nM
  fold lower potency in Kv7.2 assay relative to DMP 543: approximately 3 fold

## O=C1N(c2ccccc2)c2ccccc2C1(Cc1ccncc1)Cc1ccncc1 [Linopirdine, 3,3-Bis(4-Pyrindinylmethyl)-1-Phenylindolin-2-One]
Alzheimer's patients
  efficacy as cognitive enhancer in phase 3 trial: ineffective
  tolerability in phase 3 trial: well-tolerated

## O=C1c2ccccc2C(Cc2ccncc2)(Cc2ccncc2)c2ccccc21 [XE991, 10,10-Bis(4-Pyridinylmethyl)-9(10H)-Anthracenone]
hERG channels
  IC50: > 32000 nM
[2]
  neuroprotection: acts as a neuroprotective agent
ACh release
  EC50: 400 nM

## O=C1c2ccccc2C(Cc2ccnc(C(F)(F)F)c2)(Cc2ccnc(C(F)(F)F)c2)c2ccccc21 [compound 5]
hERG channels; thallium flux
  hERG flux IC50: inactive
Kv7.2 channels
  fold lower potency in Kv7.2 assay relative to DMP 543: ~ 100 fold

## O=C1c2ccccc2C(Cc2c(F)cncc2F)(Cc2c(F)cncc2F)c2ccccc21 [compound 6]
Acid stability
  acid stability, percent remaining: no degradation

## O=C1c2ccccc2C(Cc2ccnnc2)(Cc2ccnnc2)c2ccccc21 [compound 7]
hERG channels; thallium flux
  hERG flux IC50: inactive

## Cc1cc(CC2(Cc3ccnc(C)c3)c3ccccc3C(=O)c3ccccc32)ccn1 [compound 8]
hERG channels; thallium flux
  hERG flux IC50: inactive
